Laboratory results: patent US6680282B2 (priority 1997, dated 2004)

Tested on: Pyricularia oryzae
Assay: whole plant or invertebrate
Type: in vivo
Conditions: for rank (control effect, protective value from lesion number): 100 ppm spray, rice seedling (Jikkoku) 4-leaf stage, lesion number on fourth leaf 6 days after inoculation; for pest or weed control at 100 ppm: Pyricularia oryzae, foliar, 144 h, read-out: rank (control effect, protective value from lesion number)

| SMILES | rank (control effect, protective value from lesion number) | pest or weed control at 100 ppm [%] |
| --- | --- | --- |
| CC(=O)Oc1c(C)c(C)nc2ccc(C)cc12 [Compound No. 2] | B (protective value 50 to 79%) | – |
| CCc1ccc2nc(C)c(C)c(O)c2c1 [Compound No. 9] | A (protective value ≧80%) | – |
| CCCc1ccc2nc(C)c(C)c(O)c2c1 [Compound No. 13] | A (protective value ≧80%) | – |
| CCCCCc1ccc2nc(C)c(C)c(O)c2c1 [Compound No. 97, 4-hydroxy-2,3-dimethyl-6-n-pentyl-quinoline] | – | 50 to 79 |
| CCCCCc1ccc2nc(C)c(C)c(OC(C)=O)c2c1 [Compound No. 98, 4-acetoxy-2,3-dimethyl-6-n-pentyl-quinoline] | – | > 80 |
| CCCCCCc1ccc2nc(C)c(C)c(O)c2c1 [Compound No. 107] | A (protective value ≧80%) | – |
| CCCCCCc1ccc2nc(C)c(C)c(OC(C)=O)c2c1 [Compound No. 108] | A (protective value ≧80%) | – |
| Cc1nc2ccc(C3CCCCC3)cc2c(O)c1C [Compound No. 111] | B (protective value 50 to 79%) | – |
| CCCCCCCCc1ccc2nc(C)c(C)c(O)c2c1 [Compound No. 125] | B (protective value 50 to 79%) | – |
| CCCCCCCCc1ccc2nc(C)c(C)c(OC(C)=O)c2c1 [Compound No. 126] | A (protective value ≧80%) | – |
| Cc1nc2ccc(C(F)(F)F)cc2c(O)c1C [Compound No. 131] | B (protective value 50 to 79%) | – |
| CCC(C)c1cc(C)c2nc(C)c(C)c(OC(C)=O)c2c1 (stereo not drawn) [Compound No. 206, 4-acetoxy-6-s-butyl-2,3,8-trimethylquinoline] | – | > 80 |
| CCC(C)c1cc(F)c2nc(C)c(C)c(OC(C)=O)c2c1 (stereo not drawn) [Compound No. 212, 4-acetoxy-6-s-butyl-8-fluoro-2,3-dimethylquinoline] | – | > 80 |
| CCC(C)c1cc(OC)c2nc(C)c(C)c(OC(C)=O)c2c1 (stereo not drawn) [Compound No. 220, 4-acetoxy-6-s-butyl-8-methoxy-2,3-dimethylquinoline] | – | > 80 |
| CC(=O)Oc1c(C)c(C)nc2c(C)cc(C)cc12 [Compound No. 262] | B (protective value 50 to 79%) | – |
| CC(=O)Oc1c(C)c(C)nc2c(C(C)C)cc(C(C)C)cc12 [Compound No. 274] | A (protective value ≧80%) | – |
| CC(=O)Oc1c(C)c(C)nc2c(C)cc(C3CCCC3)cc12 [Compound No. 352, 4-Acetoxy-6-c-pentyl-8-methyl-2,3-dimethylquinoline] | A (protective value ≧80%) | – |
| CC=C(C)c1cc(C)c2nc(C)c(C)c(OC(C)=O)c2c1 [Compound No. 360, 4-acetoxy-6-(2-buten-2-yl)-2,3,8-trimethylquinoline] | – | > 80 |
| CC=C(C)c1cc(F)c2nc(C)c(C)c(OC(C)=O)c2c1 [Compound No. 362, 4-acetoxy-6-(2-buten-2-yl)-8-fluoro-2,3-dimethylquinoline] | – | > 80 |
| CCCc1ccc2nc(C)c(C)c(OC(C)=O)c2c1 [compound 14] | A (protective value ≧80%) | – |
| Cc1nc2ccc(OC(C)C)cc2c(O)c1C [compound 23] | B (protective value 50 to 79%) | – |
| CCCCc1ccc2nc(C)c(CC)c(OC(C)=O)c2c1 [compound 44] | A (protective value ≧80%) | – |
| CCCCc1ccc2nc(C)c(CCCC)c(OC(C)=O)c2c1 [compound 46] | A (protective value ≧80%) | – |
| CCCCc1ccc2nc(CC)c(C)c(OC(C)=O)c2c1 [compound 47] | A (protective value ≧80%) | – |

| SMILES | rank (control effect, protective value from lesion number) | pest or weed control at 100 ppm [%] |
| --- | --- | --- |
| CCCCc1ccc2nc(CCC)c(C)c(OC(C)=O)c2c1 [compound 48] | A (protective value ≧80%) | – |
| CCCCc1ccc2nc(CCCC)c(C)c(OC(C)=O)c2c1 [compound 49] | A (protective value ≧80%) | – |
| CCC(C)c1ccc2nc(C)c(C)c(O)c2c1 (stereo not drawn) [compound 54] | A (protective value ≧80%) | – |
| CCC(C)c1ccc2nc(C)c(C)c(OC(=O)C3CC3)c2c1 (stereo not drawn) [compound 57] | A (protective value ≧80%) | – |
| CCC(C)c1ccc2nc(C)c(C)c(OC(=O)c3ccc(OC)cc3)c2c1 (stereo not drawn) [compound 62] | A (protective value ≧80%) | – |
| CCC(C)c1ccc2nc(C)c(C)c(OC(=O)c3ccc(Cl)cc3)c2c1 (stereo not drawn) [compound 63] | A (protective value ≧80%) | – |
| CCC(C)c1ccc2nc(C)c(C)c(OC(=O)Oc3ccc(OC)cc3)c2c1 (stereo not drawn) [compound 69] | A (protective value ≧80%) | – |
| CCC(C)c1ccc2nc(C)c(C)c(OC(=O)Oc3ccc(Cl)cc3)c2c1 (stereo not drawn) [compound 70] | A (protective value ≧80%) | – |
| Cc1nc2ccc(C(C)(C)C)cc2c(O)c1C [compound 83] | A (protective value ≧80%) | – |
| CC(=O)Oc1c(C)c(C)nc2ccc(C(C)(C)C)cc12 [compound 84] | A (protective value ≧80%) | – |
| Cc1nc2ccc(CC(C)C)cc2c(O)c1C [compound 92] | B (protective value 50 to 79%) | – |
| CCC(C)c1ccc2nc(C)c(C)c(OC(=O)C3CCCCC3)c2c1 (stereo not drawn) [compound 170] | A (protective value ≧80%) | – |
| CCC(C)c1ccc2nc(C)c(C)c(OC(=O)c3ccc([N+](=O)[O-])cc3)c2c1 (stereo not drawn) [compound 171] | B (protective value 50 to 79%) | – |
| CCC(C)c1ccc2nc(C)c(C)c(OC(=O)Cc3ccccc3)c2c1 (stereo not drawn) [compound 172] | A (protective value ≧80%) | – |
| CCCCCC(=O)Oc1c(C)c(C)nc2ccc(C(C)CC)cc12 (stereo not drawn) [compound 173] | A (protective value ≧80%) | – |
| CCCCOC(=O)Oc1c(C)c(C)nc2ccc(C(C)CC)cc12 (stereo not drawn) [compound 179] | A (protective value ≧80%) | – |
| CCCCCCCC(=O)Oc1c(C)c(C)nc2ccc(C(C)CC)cc12 (stereo not drawn) [compound 180] | A (protective value ≧80%) | – |
| CCc1cccc2nc(C)c(C)c(OC(C)=O)c12 [compound 182] | B (protective value 50 to 79%) | – |
| CCc1ccc2c(OC(C)=O)c(C)c(C)nc2c1 [compound 183] | B (protective value 50 to 79%) | – |
| CCCCc1cc(Br)c2nc(C)c(C)c(O)c2c1 [compound 186] | B (protective value 50 to 79%) | – |
| Cc1nc2c(C)cc(Br)cc2c(O)c1C [compound 190] | B (protective value 50 to 79%) | – |
| Cc1nc2ccc(Br)c(C)c2c(O)c1C [compound 191] | A (protective value ≧80%) | – |
| Cc1cc2nc(C)c(C)c(O)c2cc1Br [compound 192] | A (protective value ≧80%) | – |
| Cc1nc2c(F)cc(Br)cc2c(O)c1C [compound 193] | A (protective value ≧80%) | – |
